Laboratory results as given in ChEMBL document CHEMBL1137237, “Identification of isothiazole-4-carboxamidines derivatives as a novel class of allosteric MEK1 inhibitors” (Bioorg Med Chem Lett, 2006).

Columns and labels:
[1] = AUC following oral dose; format: ADME, organism-based; conditions: rat, plasma
[2] = AUC following intravenous dose; format: ADME, organism-based; conditions: rat, plasma
[3] = target: T1, Dual specificity mitogen-activated protein kinase kinase 1 (Homo sapiens, UniProt Q02750); assay: Inhibition of MEK-1 activity
[4] = target: T1, Dual specificity mitogen-activated protein kinase kinase 1; assay: Inhibitory activity against MEK-1; format: functional
[5] = target: Serine/threonine-protein kinase Chk2 (Homo sapiens, UniProt O96017); assay: Inhibition of CHK2
[6] = target: T1, Dual specificity mitogen-activated protein kinase kinase 1; assay: Inhibition of MEK-1
[7] = target: T2, Receptor-type tyrosine-protein kinase FLT3 (Homo sapiens, UniProt P36888); assay: Inhibition of Flt-3
T2 sequence (P36888 whole entry): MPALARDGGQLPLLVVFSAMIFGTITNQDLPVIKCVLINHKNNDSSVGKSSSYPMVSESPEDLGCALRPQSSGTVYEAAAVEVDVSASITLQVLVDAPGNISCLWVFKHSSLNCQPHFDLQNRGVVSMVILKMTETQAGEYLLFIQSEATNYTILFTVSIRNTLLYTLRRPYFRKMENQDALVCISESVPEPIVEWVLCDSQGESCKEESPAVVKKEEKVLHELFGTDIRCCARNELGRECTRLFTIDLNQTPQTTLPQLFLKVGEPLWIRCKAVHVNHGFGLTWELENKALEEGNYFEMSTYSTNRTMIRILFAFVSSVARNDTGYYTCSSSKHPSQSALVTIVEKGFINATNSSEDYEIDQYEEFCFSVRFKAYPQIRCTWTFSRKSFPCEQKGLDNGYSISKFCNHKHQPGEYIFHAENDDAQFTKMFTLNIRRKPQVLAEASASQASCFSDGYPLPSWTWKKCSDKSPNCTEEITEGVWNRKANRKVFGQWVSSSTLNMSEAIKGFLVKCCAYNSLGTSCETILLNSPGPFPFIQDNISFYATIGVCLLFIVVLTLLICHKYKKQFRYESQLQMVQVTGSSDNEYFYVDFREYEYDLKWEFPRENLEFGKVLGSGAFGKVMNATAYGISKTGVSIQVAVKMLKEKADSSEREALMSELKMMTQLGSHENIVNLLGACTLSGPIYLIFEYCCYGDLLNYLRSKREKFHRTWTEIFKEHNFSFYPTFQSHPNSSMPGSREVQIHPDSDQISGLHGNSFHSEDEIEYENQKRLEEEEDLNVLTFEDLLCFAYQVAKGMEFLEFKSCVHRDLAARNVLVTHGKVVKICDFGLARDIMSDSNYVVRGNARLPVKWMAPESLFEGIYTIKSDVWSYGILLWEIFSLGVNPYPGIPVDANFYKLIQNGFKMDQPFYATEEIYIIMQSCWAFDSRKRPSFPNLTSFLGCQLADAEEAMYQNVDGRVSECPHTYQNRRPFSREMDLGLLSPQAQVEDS

Aurora kinase A = target: T3, Aurora kinase A (Homo sapiens, UniProt O14965); assay: Inhibition of Aurora
T3 sequence (O14965 whole entry): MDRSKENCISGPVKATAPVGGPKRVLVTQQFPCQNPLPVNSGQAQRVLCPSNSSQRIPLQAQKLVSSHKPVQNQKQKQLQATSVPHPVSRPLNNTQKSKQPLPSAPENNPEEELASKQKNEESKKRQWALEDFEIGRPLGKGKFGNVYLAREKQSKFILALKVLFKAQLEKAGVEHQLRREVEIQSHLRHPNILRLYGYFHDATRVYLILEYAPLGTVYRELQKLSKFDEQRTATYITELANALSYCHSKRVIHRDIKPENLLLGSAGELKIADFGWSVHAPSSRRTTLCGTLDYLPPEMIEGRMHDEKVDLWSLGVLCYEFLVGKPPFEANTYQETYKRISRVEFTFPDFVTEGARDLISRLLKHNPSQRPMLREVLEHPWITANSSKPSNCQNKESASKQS

[8] = target: T4, Tyrosine-protein kinase receptor UFO (Homo sapiens, UniProt P30530); assay: Inhibition of Axl
T4 sequence (P30530 whole entry): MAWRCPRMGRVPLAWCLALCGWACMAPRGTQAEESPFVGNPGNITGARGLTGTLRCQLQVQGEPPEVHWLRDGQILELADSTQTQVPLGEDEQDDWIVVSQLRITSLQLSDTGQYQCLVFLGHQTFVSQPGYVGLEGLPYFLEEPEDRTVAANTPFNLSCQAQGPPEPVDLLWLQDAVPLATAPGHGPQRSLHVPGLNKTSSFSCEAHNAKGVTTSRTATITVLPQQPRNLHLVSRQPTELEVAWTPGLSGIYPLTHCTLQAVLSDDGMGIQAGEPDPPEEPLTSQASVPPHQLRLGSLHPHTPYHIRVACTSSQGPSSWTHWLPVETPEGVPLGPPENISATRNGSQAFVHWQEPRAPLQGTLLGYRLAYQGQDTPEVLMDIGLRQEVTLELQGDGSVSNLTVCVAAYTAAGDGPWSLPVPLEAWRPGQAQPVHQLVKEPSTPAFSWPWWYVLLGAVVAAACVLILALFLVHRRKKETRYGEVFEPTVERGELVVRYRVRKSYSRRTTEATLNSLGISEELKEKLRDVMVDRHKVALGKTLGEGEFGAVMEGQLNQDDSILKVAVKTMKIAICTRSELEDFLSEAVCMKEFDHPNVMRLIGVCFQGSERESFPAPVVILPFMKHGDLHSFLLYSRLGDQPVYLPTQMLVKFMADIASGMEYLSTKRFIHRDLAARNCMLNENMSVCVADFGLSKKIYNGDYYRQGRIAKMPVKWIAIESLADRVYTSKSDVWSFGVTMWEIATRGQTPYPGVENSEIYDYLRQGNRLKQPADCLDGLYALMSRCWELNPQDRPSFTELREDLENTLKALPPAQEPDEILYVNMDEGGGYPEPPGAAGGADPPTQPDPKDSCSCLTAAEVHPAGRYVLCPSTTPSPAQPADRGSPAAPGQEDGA

[9] = target: Ribosomal protein S6 kinase (P70S6K) (Homo sapiens, UniProt P23443+Q9UBS0); assay: Inhibition of p70 S6 kinase; format: protein-complex assay
Chain of Ribosomal protein S6 kinase (P70S6K) (Q9UBS0 whole entry): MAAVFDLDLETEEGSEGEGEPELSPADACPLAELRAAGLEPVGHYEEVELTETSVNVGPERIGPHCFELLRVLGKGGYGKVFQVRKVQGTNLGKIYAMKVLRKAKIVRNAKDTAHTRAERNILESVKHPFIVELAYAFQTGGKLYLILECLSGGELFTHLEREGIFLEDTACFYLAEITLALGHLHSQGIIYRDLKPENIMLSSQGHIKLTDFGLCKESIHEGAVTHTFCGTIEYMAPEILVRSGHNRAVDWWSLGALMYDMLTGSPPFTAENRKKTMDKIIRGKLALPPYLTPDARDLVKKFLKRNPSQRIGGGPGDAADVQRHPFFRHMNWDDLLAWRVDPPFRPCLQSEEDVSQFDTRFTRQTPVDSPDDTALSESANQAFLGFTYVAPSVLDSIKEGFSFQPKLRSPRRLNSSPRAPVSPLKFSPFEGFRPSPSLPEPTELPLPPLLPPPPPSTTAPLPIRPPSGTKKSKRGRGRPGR
Chain of Ribosomal protein S6 kinase (P70S6K) (P23443 whole entry): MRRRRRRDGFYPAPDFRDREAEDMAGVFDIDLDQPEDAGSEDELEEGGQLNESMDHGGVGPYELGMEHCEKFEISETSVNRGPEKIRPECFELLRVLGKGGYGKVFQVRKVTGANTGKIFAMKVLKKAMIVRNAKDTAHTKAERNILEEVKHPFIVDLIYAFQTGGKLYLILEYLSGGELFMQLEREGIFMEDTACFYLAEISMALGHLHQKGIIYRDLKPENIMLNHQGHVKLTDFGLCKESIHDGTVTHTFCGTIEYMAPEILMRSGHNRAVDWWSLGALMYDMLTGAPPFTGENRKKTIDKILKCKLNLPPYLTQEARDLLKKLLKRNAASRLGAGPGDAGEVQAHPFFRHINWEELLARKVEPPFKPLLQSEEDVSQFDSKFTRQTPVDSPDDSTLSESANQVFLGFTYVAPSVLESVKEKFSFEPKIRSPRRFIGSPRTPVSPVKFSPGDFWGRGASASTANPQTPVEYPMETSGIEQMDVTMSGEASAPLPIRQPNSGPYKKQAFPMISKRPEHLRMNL

T1 sequence (Q02750 whole entry): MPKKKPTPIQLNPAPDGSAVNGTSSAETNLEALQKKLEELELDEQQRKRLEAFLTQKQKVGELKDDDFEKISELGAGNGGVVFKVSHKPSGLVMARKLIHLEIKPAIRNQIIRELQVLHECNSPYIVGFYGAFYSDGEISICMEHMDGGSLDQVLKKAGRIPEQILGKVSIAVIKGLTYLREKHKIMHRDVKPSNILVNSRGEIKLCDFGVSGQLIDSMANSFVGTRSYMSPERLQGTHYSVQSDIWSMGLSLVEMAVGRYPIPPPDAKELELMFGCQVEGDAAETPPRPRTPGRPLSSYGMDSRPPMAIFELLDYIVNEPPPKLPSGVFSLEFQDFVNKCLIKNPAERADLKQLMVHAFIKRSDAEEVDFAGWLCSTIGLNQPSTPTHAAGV
Chain of Serine/threonine-protein kinase Chk2 (O96017 whole entry): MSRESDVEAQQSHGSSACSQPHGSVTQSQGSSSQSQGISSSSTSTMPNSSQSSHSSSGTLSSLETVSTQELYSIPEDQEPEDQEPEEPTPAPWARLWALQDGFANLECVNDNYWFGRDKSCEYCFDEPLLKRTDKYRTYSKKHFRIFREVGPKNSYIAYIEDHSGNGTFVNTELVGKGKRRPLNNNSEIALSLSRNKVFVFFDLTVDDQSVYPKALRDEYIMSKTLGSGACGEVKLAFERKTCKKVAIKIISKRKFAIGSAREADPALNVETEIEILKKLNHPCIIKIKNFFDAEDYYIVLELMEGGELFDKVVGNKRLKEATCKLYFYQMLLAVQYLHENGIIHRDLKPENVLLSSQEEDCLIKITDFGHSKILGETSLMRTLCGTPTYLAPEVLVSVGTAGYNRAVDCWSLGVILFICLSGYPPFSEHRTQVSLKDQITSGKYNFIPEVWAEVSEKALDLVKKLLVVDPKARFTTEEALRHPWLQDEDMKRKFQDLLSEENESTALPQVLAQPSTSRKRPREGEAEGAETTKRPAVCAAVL

Row | AUC [1] [ng·h/mL] | Compound | further results
1 | 5260 | CC(CO)/N=C(\N)c1c(O)nsc1Nc1ccc(Oc2cccc(Cl)c2Cl)cc1 (stereo not given) | 
2 | 900 | CC(CO)NC(=N)c1c(O)nsc1Nc1ccc(Oc2cc(F)ccc2Cl)cc1 (stereo not given) | 
3 | 617 | N=C(NCCN1CCOCC1)c1c(O)nsc1Nc1ccc(Oc2cc(Cl)ccc2Cl)cc1 | 
4 | 9430 | CC(CO)NC(=N)c1c(O)nsc1Nc1ccc(Oc2cccc(F)c2F)cc1 (stereo not given) | 
5 | 4280 | CC(CO)NC(=N)c1c(O)nsc1Nc1ccc(Oc2cccc(Cl)c2Cl)c(Cl)c1 (stereo not given) | 
6 | 6860 | NC(=NCCCN1CCOCC1)c1c(Nc2ccc(Oc3cc(Cl)ccc3Cl)cc2)s[nH]c1=O | 
7 | 11700 | CC(CO)NC(=N)c1c(O)nsc1Nc1ccc(Oc2cc(Cl)cc(Cl)c2)cc1 (stereo not given) | 
8 | 16500 | CC(CO)/N=C(\N)c1c(O)nsc1Nc1ccc(Oc2ccc(F)cc2F)cc1 (stereo not given) | 
9 | 26200 | CC(CO)NC(=N)c1c(O)nsc1Nc1ccc(Oc2ccc(Cl)cc2Cl)cc1 (stereo not given) | 
10 | 2880 | N/C(=N\N1CCOCC1)c1c(O)nsc1Nc1ccc(Oc2cc(Cl)ccc2Cl)cc1 | 
11 | 262 | CN1CCN(CC/N=C(\N)c2c(O)nsc2Nc2ccc(Oc3cc(Cl)ccc3Cl)cc2)CC1 | 
12 | 5140 | CC(CO)/N=C(\N)c1c(O)nsc1Nc1ccc(Oc2cc(F)cc(F)c2)cc1 (stereo not given) | 
13 | 6260 | CC(CO)/N=C(\N)c1c(O)nsc1Nc1ccc(Oc2ccc(F)cc2Cl)cc1 (stereo not given) | 
14 | 20300 | CC(CO)/N=C(\N)c1c(O)nsc1Nc1ccc(Oc2cc(F)cc(F)c2Cl)cc1 (stereo not given) | 
15 | 47400 | CC(CO)N=C(N)c1c(Nc2ccc(Oc3cc(Cl)ccc3Cl)cc2)s[nH]c1=O (stereo not given) | 
16 | 22400 | CC(C)C(CO)N=C(N)c1c(Nc2ccc(Oc3cc(Cl)ccc3Cl)cc2)s[nH]c1=O (stereo not given) | 
17 | 5100 | NC(=NC(CO)CO)c1c(Nc2ccc(Oc3cc(Cl)ccc3Cl)cc2)s[nH]c1=O | 
18 | 425 | N=C(NCC1CCCO1)c1c(O)nsc1Nc1ccc(Oc2cc(Cl)ccc2Cl)cc1 (stereo not given) | 
19 | 87 | N/C(=N\CCN1CCNC(=O)C1)c1c(O)nsc1Nc1ccc(Oc2cc(Cl)ccc2Cl)cc1 | 
20 | 14600 | NC(=NCCO)c1c(Nc2ccc(Oc3cc(Cl)ccc3Cl)cc2)s[nH]c1=O | 
21 | 4250 | CC(CO)N=C(N)c1c(Nc2ccc(S(=O)(=O)c3ccccc3)cc2)s[nH]c1=O (stereo not given) | AUC [2]: 8540 ng·h/mL
22 | 5710 | CC(CO)NC(=N)c1c(O)nsc1Nc1ccc(Oc2cccc(C(F)(F)F)c2Cl)c(Cl)c1 (stereo not given) | 
23 | 60 | CC(CO)/N=C(\N)c1c(O)nsc1Nc1ccc(C(=O)c2ccccc2)cc1 (stereo not given) | AUC [2]: 2900 ng·h/mL
24 | 220 | CC(CO)/N=C(\N)c1c(O)nsc1Nc1ccc(Cc2ccccc2)cc1 (stereo not given) | AUC [2]: 7250 ng·h/mL

Row | AUC [1] [ng·h/mL] | Compound | further results
25 | 21900 | CC(CO)N=C(N)c1c(Nc2ccc(Oc3cc(C(F)(F)F)ccc3Cl)cc2)s[nH]c1=O (stereo not given) | 
26 | 4500 | CC(CO)N=C(N)c1c(Nc2ccc(Oc3cccc(C(F)(F)F)c3Cl)c(F)c2)s[nH]c1=O (stereo not given) | 
27 | 31300 | CC(CO)N=C(N)c1c(Nc2ccc(Oc3cc(C(F)(F)F)ccc3F)cc2)s[nH]c1=O (stereo not given) | 
28 | 13000 | CC(CO)N=C(N)c1c(Nc2ccc(Oc3cccc(C(F)(F)F)c3F)cc2)s[nH]c1=O (stereo not given) | 
29 | 20400 | CC(CO)NC(=N)c1c(O)nsc1Nc1ccc(Oc2cccc(C(F)(F)F)c2Cl)cc1 (stereo not given) | 
30 | 1240 | CC(CO)NC(=N)c1c(O)nsc1Nc1ccc(Nc2ccccc2)cc1 (stereo not given) | IC50 [3]: 240 nM; EC50 [4]: 45 nM; IC50 [5]: 13 nM; IC50 [6]: 266 nM; IC50 [7]: 448 nM; IC50 (Aurora kinase A): 265 nM; AUC [2]: 859 ng·h/mL; IC50 [8]: 389 nM; IC50 [9]: 1000 nM
31 | 2020 | N=C(NCCC(O)CO)c1c(O)nsc1Nc1ccc(Oc2cc(Cl)ccc2Cl)cc1 (stereo not given) | 
32 | 28700 | CC(CO)NC(=N)c1c(O)nsc1Nc1ccc(Oc2cccc(C(F)(F)F)c2)cc1 (stereo not given) | 
33 | 1980 | CN1CCN(N=C(N)c2c(Nc3ccc(Oc4cc(Cl)ccc4Cl)cc3)s[nH]c2=O)CC1 | 
34 | 12500 | NC(=NCC(O)CO)c1c(Nc2ccc(Oc3cc(Cl)ccc3Cl)cc2)s[nH]c1=O (stereo not given) | 
35 | 5690 | CC(CO)N=C(N)c1c(Nc2ccc(Oc3ccc(F)cc3Cl)c(Cl)c2)s[nH]c1=O (stereo not given) | 
36 | 14600 | CCC(CO)/N=C(\N)c1c(O)nsc1Nc1ccc(Oc2cc(Cl)ccc2Cl)cc1 (stereo not given) | 
37 | 12600 | CC(CO)/N=C(\N)c1c(O)nsc1Nc1ccc(Oc2cccc(Cl)c2F)cc1 (stereo not given) | 
38 | 22200 | CC(CO)/N=C(\N)c1c(O)nsc1Nc1ccc(Oc2cc(Cl)ccc2Cl)c(F)c1 (stereo not given) | 
39 | 2350 | CC(CO)/N=C(\N)c1c(O)nsc1Nc1ccc(C(C)(C)c2ccccc2)cc1 (stereo not given) | AUC [2]: 9250 ng·h/mL
40 | 23900 | CC(O)C/N=C(\N)c1c(O)nsc1Nc1ccc(Oc2cc(Cl)ccc2Cl)cc1 (stereo not given) | 
41 | 265 | CC(CO)N=C(N)c1c(Nc2ccc(Sc3ccccc3)cc2)s[nH]c1=O (stereo not given) | AUC [2]: 6900 ng·h/mL
42 | 2420 | CN1CCN(CCC/N=C(\N)c2c(O)nsc2Nc2ccc(Oc3cc(Cl)ccc3Cl)cc2)CC1 | 
43 | 14900 | CC(CO)/N=C(\N)c1c(O)nsc1Nc1ccc(Oc2cc(F)cc(F)c2Cl)c(F)c1 (stereo not given) | 
44 | 900 | CC(CO)N=C(N)c1c(Nc2ccc(Oc3cccc(N(C)C)c3)cc2)s[nH]c1=O (stereo not given) | 
45 | 12700 | Cc1cc(Oc2ccc(F)cc2Cl)ccc1Nc1snc(O)c1/C(N)=N/C(C)CO (stereo not given) | 
46 | 15400 | CC(CO)NC(=N)c1c(O)nsc1Nc1ccc(Oc2cc(F)cc(C(F)(F)F)c2)cc1 (stereo not given) | 
47 | 1140 | CC(CO)/N=C(\N)c1c(O)nsc1Nc1ccc(Oc2ccccc2)cc1 (stereo not given) | IC50 [3]: 33 nM; EC50 [4]: 42 nM; IC50 [5]: 142 nM; IC50 [6]: 26 nM; IC50 [7]: 795 nM; IC50 (Aurora kinase A): 260 nM; AUC [2]: 8320 ng·h/mL; IC50 [8]: 455 nM; IC50 [9]: 2620 nM
